Measurements from patent US11116767B2, “3,5-disubstituted pyrazoles useful as checkpoint kinase 1 (Chk1) inhibitors, and their preparations and applications” (PHARMAENGINE, INC., priority 2016, dated 2021).
pIC50: −log10 of the molar value. Where two headings read alike, the source gives them in different places.

Assays:
[1] = target: T1, Chk1 (Homo sapiens, UniProt O14757); experiment: biochemical; details: ADP-Glo; read-out: Chk1 in vitro enzyme activity (grade)
T1 construct: purchased BPS 40039
T1 sequence (O14757 1-476): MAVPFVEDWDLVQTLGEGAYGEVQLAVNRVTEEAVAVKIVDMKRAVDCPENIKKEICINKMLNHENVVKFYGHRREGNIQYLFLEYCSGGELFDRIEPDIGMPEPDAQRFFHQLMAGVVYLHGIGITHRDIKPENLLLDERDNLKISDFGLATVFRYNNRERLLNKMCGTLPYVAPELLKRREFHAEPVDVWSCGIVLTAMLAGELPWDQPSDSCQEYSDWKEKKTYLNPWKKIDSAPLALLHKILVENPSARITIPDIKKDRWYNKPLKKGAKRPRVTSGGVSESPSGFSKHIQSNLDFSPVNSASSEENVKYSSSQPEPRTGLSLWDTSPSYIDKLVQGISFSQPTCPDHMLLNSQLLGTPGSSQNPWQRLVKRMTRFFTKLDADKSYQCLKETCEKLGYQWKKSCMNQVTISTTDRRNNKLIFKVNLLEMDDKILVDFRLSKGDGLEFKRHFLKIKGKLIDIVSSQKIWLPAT

[2] = target: T2, Chk2 (Homo sapiens, UniProt O96017); experiment: biochemical; details: ADP-Glo; read-out: Chk2 in vitro enzyme activity (grade)
T2 construct: purchased Carna 02-162
T2 sequence (O96017 whole entry): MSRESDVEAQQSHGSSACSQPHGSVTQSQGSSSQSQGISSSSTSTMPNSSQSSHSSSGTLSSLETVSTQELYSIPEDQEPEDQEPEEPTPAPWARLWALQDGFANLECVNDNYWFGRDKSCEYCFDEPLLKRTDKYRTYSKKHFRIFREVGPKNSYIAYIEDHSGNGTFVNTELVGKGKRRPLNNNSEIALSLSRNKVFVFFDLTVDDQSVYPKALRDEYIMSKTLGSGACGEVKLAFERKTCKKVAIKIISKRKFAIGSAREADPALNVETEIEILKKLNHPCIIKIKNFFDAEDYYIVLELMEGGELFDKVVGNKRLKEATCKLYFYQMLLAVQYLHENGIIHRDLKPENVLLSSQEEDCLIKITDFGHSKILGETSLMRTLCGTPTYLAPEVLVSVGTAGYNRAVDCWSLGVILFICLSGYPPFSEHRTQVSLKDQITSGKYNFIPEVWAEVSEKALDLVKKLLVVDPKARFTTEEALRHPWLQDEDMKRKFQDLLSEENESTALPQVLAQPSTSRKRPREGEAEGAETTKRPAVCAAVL

[3] = tested on: HT-29; experiment: Cancer cell growth inhibition assay (CellTiter-Glo), HT-29; type: cell-based, Human; details: 72 hours, cellular ATP content, read-out: HT-29 anti cell proliferation activity (grade)
Protocol: (§1) Human cancer cell lines were purchased from American Type Culture Collection (Manassas, Va.). The trypsinized cells were diluted to required volume at densities of 44,000 cells/ml. 90 ul cell slurry was dispensed per well in 96-well flat-bottomed plates with the recommended culture medium. The cells were incubated for 24 hours at 37° C. in 5% CO2 under humidified condition. The cells were then incubated with compounds at various concentrations for 72 hours in culture medium supplemented with 0.5% (v/v) FBS. Growth inhibition was assessed by assay of cellular ATP content using CellTiter-Glo reagent to each well. Luminesce was read on Envision. The inhibition rate (%)=(Max signal compound signal)/(Max signal Min signal)×100.

[4] = tested on: MDA-MB-231; experiment: Cancer cell growth inhibition assay (CellTiter-Glo), MDA-MB-231; type: cell-based, Human; details: 72 hours, cellular ATP content, read-out: MDA-MB-231 anti cell proliferation activity (grade)
Protocol: as §1

[5] = Pharmacokinetics study in rats, intravenous; type: in vivo, SD rats; details: rat; for AUC(0-inf) / AUC(0-t) / clearance / MRT / half-life / Vd: male, SD, plasma; for AUC(0-inf) / AUC(0-t) / clearance / MRT / half-life / Vd / half-life and exposure compared with LY2606368: IV; for AUC(0-inf): read-out: AUC0-inf; for AUC(0-t): read-out: AUC0-t; for clearance: read-out: CL (converted); for MRT: read-out: MRT; for half-life: read-out: t½ (converted); for half-life and exposure compared with LY2606368: 10 mg/kg (LY2606368 5 mg/kg)
Protocol: Compounds were formulated in 30% SEB-β-CD (Zhiyuan Bio-technology) with 1 molar equivalents of HCl (pH adjusted to 3-5). Male SD rats (280-350 g) were purchased from Medical Laboratory Animal Center of Guangdong. Three rats were used for each PK study. […] At various time points after compound administration, approximately 0.2˜0.3 mL of blood was collected by cutting the end of tail into tubes containing K2-EDTA. The plasma was separated via centrifugation and stored at −80° C. A PE Sciex API-3000 LC-MS/MS system (Applied Biosystems, Inc.) was used to analyze compound concentrations in plasma.
PK studies of ChK1 inhibitors were conducted in rats after intravenous administration at 10 mg/kg. […]. […]

[6] = Human liver S9 metabolic stability; type: in vitro ADME; details: for Percentage Remaining %: 1 μM, 37° C.; for metabolic stability compared with LY2606368: human liver S9; for half-life at 1 μM: human liver S9, 1 μM
Protocol: Compounds (1 μM) were incubated with human liver S9 (from BD Gentest) at final liver microsomal protein concentration of 0.5 mg/mL for 0, 5, 15, 30, 45 min at 37° C. The remaining compounds in the reaction were measured by LC-MS/MS. The half-life (T½) 0.693/K (K is the rate constant from a plot of ln [concentration] vs. incubation time).

[7] = tested on: ChK1 phosphorylation (pChK1 S296) in HT-29 colon cancer cells; experiment: Western blot analysis of ChK1 phosphorylation in HT-29 cells with SN-38; type: cell-based, Human; details: HT-29 cells pre-incubated with Chk1 inhibitor 0.5 hours, then SN-38 (200 nM) 16 hours
[8] = tested on: HT-29 colon cancer xenograft; type: in vivo
Protocol: (§2) Female Balb/c nude mice at 7-8 weeks of age (Body weights between 17-18g) were purchased from Hunan SJA Laboratory Animal Co., Ltd. HT-29 cells were cultured in DMEM culture medium containing 10% fetal bovine serum and LoVo cells were cultured in RPMI 1640 culture medium containing 10% fetal bovine serum. The cells were harvested and washed with serum free culture medium. Finally, the cells were suspended at a cell density of […] in serum free culture medium for implantation. 5 million cells per animal suspended in 0.1 ml serum free culture medium and 1.1 matrigel were injected into the right flank of the animals after a one, week acclimation period. When average tumor volume reached acceptable tumor size (100-200 mm^3) and shape, the animals were randomly assigned into treatment groups.
HT-29 colon cancer cells were implanted to establish the xenograft model in Balb/c nude mice. Compound 3 and LY2606368 were dissolved in 30% SEB-β-CD (Zhiyuan Bio-technology) with 1 molar equivalents of HCl. GDC-575 was suspended in 0.5% methyl cellulose/0.1% Tween 80 in water. […]. The animals well tolerated each treatment in the HT-29 colon cancer in nude mice model.

[9] = tested on: HT-29 tumor xenograft; experiment: HT-29 xenograft model, alone or in combination with CPT-11; type: in vivo, Balb/c nude mice; details: for % T/C value: 15 mg/kg, IV
Protocol: as §2
In HT-29 tumor xenograft model, the animals were treated with a single compound, a ChK1 inhibitor or CPT-11, or a combination with CPT11. […] The animals well tolerated each treatment in the HT-29 colon cancer in nude mice model.

[10] = tested on: LoVo colon cancer xenograft; experiment: LoVo colon xenograft model; type: in vivo, Balb/c nude mice; details: IV, twice a week
Protocol: as §2
Lovo colon cancer cells were implanted to establish the xenograft model in Balb/c nude mice. Compound 3 and LY2606368 were dissolved in 30% SEB-β-CD (Zhiyuan Bio-technology) with 1 molar equivalents of HCl. […]

[11] = iv, 10 mg/kg, 10 mg/kg, read-out: Vd
[12] = iv, 10 mg/kg, 10 mg/kg, read-out: Vss

SMILES | pIC50 [1] | pIC50 [2] | pIC50 ([3]; Homo sapiens, HT-29) | pIC50 ([4]; Homo sapiens, MDA-MB-231) | AUC(0-inf) ([5]; 10 mg/kg) | AUC(0-t) ([5]; 10 mg/kg) | clearance ([5]; 10 mg/kg) | MRT ([5]; 10 mg/kg) | half-life ([5]; 10 mg/kg) | Vd [5, 11] | Vd [5, 12] | half-life and exposure compared with LY2606368 [5] | Percentage Remaining % ([6]; 0 min) | Percentage Remaining % ([6]; 5 min) | Percentage Remaining % ([6]; 15 min) | Percentage Remaining % ([6]; 30 min) | Percentage Remaining % ([6]; 45 min) | metabolic stability compared with LY2606368 [6] | half-life at 1 μM [6] | melting point | further results
COc1cc(Cl)cc(OCCCN)c1-c1cc(Nc2cnc(C#N)cn2)n[nH]1 [Compound 4, 5-(5-(2-(3-Aminopropoxy)-4-chloro-6-methoxyphenyl)-1H-pyrazol-3-ylamino)pyrazine-2-carbonitrile] | ≥ 9.00 | 7.00 to 7.30 | 7.30 to 8.00 | 7.30 to 8.00 | 2400 ng·h/mL | 2390 ng·h/mL | 78.3 mL/min/kg | 3.1 h | 3.3 h | 22.1 L/kg | 14.3 L/kg | longer half-life and higher exposure than LY2606368 | 100.00% | 97.57% | 94.83% | 88.45% | 82.67% | more metabolic stable than LY2606368 | 103 h | 198 to 203 °C | 
COc1cc(F)cc(OCC2(CN)CC2)c1-c1cc(Nc2cnc(C#N)cn2)n[nH]1 [Compound 13, 5-(5-(2-((1-(Aminomethyl)cyclopropyl)methoxy)-4-fluoro-6-methoxyphenyl)-1H-pyrazol-3-ylamino)pyrazine-2-carbonitrile] | ≥ 9.00 | 7.30 to 8.00 | ≥ 8.00 | 7.30 to 8.00 |  |  |  |  |  |  |  |  | 100.00% | 98.69% | 99.08% | 96.23% | 100.18% | more metabolic stable than LY2606368 | 5 h | 202 to 206 °C | 
COc1cc(Cl)cc(OCC2(CN)CC2)c1-c1cc(Nc2cnc(C#N)cn2)n[nH]1 [Compound 14, 5-(5-(2-((1-(Aminomethyl)cyclopropyl)methoxy)-4-chloro-6-methoxyphenyl)-1H-pyrazol-3-ylamino)pyrazine-2-carbonitrile] | ≥ 9.00 | 7.30 to 8.00 | 7.30 to 8.00 | 7.30 to 8.00 | 3120 ng·h/mL | 3100 ng·h/mL | 56.7 mL/min/kg | 4.1 h | 4 h | 19.2 L/kg | 13.9 L/kg | longer half-life and higher exposure than LY2606368 |  |  |  |  |  |  |  | 232 to 236 °C | 
N[C@@H]1CCCN(c2c(Br)cnc3[nH]cc(NC(=O)C4CC4)c23)C1 [GDC-0575, reference compound] | 8.00 to 9.00 | 7.00 to 7.30 |  |  |  |  |  |  |  |  |  |  |  |  |  |  |  |  |  |  | pIC50 [3]: 6.30 to 7.00; pIC50 [4]: 6.30 to 7.00; inhibition of Chk1 phosphorylation (FIG. 1) [7]: less potent than these compounds; T/C value ([8]; 25 mg/kg, po, 3 times/week): 50%; Tumor volume (X ± SD) ([8]; 25 mg/kg, po, 3 times/week): 515 ± 158 mm^3; Tumor weight (X ± SD) ([8]; 25 mg/kg, po, 3 times/week): 349 ± 94 mg
COc1cccc(OCCCN)c1-c1cc(Nc2cnc(C#N)cn2)n[nH]1 [LY-2606368, reference compound] |  |  | 7.30 to 8.00 | 7.30 to 8.00 |  |  |  |  |  |  |  |  |  |  |  |  |  |  | 1.47 h |  | AUC(0-inf) ([5]; 5 mg/kg): 637 ng·h/mL; AUC(0-t) ([5]; 5 mg/kg): 631 ng·h/mL; clearance ([5]; 5 mg/kg): 132 mL/min/kg; MRT ([5]; 5 mg/kg): 1.2 h; half-life ([5]; 5 mg/kg): 1.3 h; Vd ([5]; iv, 5 mg/kg, 5 mg/kg, read-out: Vd): 14.7 L/kg; Vd ([5]; iv, 5 mg/kg, 5 mg/kg, read-out: Vss): 9.7 L/kg; tolerability in rats ([5]; in vivo, iv, 10 mg/kg): did not tolerated; T/C value ([8]; 15 mg/kg, iv, 2 times/week): 61%; Tumor volume (X ± SD) ([8]; 15 mg/kg, iv, 2 times/week): 615 ± 10 mm^3; Tumor weight (X ± SD) ([8]; 15 mg/kg, iv, 2 times/week): 390 ± 24 mg; % T/C value ([9]; twice a week plus CPT-11 (50 mg/kg, IV, once per week)): 0%; % T/C value ([9]; alone, twice a week): 61%; effect on anti-tumor growth activity of CPT11 ([9]; combination with CPT11): enhanced anti-tumor growth activity of CPT11; T/C value ([10]; 15 mg/kg): −57%; tumor growth inhibition ([10]; LY2606368 15 mg/kg, Compound 3 10, 20, 40 mg/kg): significant tumor growth inhibition in a dose-dependent manner
